Measured values from patent US20040023884A1, “Biologically active peptides from functional domains of bactericidal/permeability-increasing protein and uses thereof” (priority 1993, published 2004).
Entries after “also recorded” stand apart in the source; their conditions may differ. Ends that are not written are not given here.

What was measured:
Candida albicans = assay type: cell-based; details: broth assay, FIGS. 11p and 11q
Experimental: (§1) In additional experiments, broth antibacterial assays were conducted to further determine the bactericidal activity of certain of the BPI peptides. Specifically, either E. coli J5 (rough) or E. coli 0111:B4 (smooth) bacteria were selected from single colonies on agar plates and used to inoculate 5 mL of Mueller Hinton broth and incubated overnight at 37° C. with shaking. The overnight culture was diluted (˜1:50) into 5 mL fresh broth and incubated at 37° C. to log phase (˜3 hours). Bacteria were pelleted for 5 minutes at 3000 rpm (1500×g). Bacterial pellets were resuspended in 5 mL PBS and diluted to 2×10^6 cells/mL in the Mueller Hinton broth (wherein 1 OD570 unit equals 1.25×10^9 CFU/mL). The BPI functional domain peptides to be tested were diluted to 200 μg/mL in broth and serially diluted 2-fold in 96 well culture plates (100 μL volume). All items were at 2-fold final concentration and experiments were conducted in triplicate. Bacteria were added at 100 μL/well and the plates were incubated on a shaker at 37° C. for a 20 hour period. The plates were then read on an ELISA plate multiple reader at 590 nm. One of the triplicate wells from each peptide concentration was selected for colony forming unit (CFU) determination. A 30 μL aliquot was added to 270 μL of PBS and further ten-fold serial dilutions were performed. Then a 50 μL aliquot was plated on tryptic soy agar and incubated overnight. Colonies were counted and final bacterial concentrations determined. The results of these assays are depicted in FIGS. 9e (for E. coli J5) and 9f (for E. coli 0111:B4).
In light of the results of the experiments disclosed in Example 15, the bactericidal activity of domain II-domain III combination peptides were compared with the bactericidal activity of each of the component BPI domain II and domain III peptides, against a number of different bacteria and other microorganisms. The following BPI functional domain peptides as described above were used in radial diffusion bactericidal assays (Example 2) and broth bactericidal assays (Example 13) essentially as described in Example 15 above. These Figures show results of bactericidal assays using the following bacterial strains: […]

[1] = system: LPS-induced TNF production in whole blood; test: Inhibition of LPS-induced TNF production in whole blood; assay type: cell-based; details: LPS-induced TNF production in human whole blood, E. coli 0113 LPS, 4 h at 37° C.
Experimental: LPS neutralization by BPI functional domain peptides of the invention was assayed in whole blood as follows. Freshly drawn blood from healthy human donors was collected into vacutainer tubes (ACD, Rutherford, N.J.) Aliquots of blood (170 μL) were mixed with 10 μL Ca^++-, Mg^++-free PBS containing 2.5 ng/mL E. coli 0113 LPS, and with 20 μL of varying concentrations of the BPI peptides of the invention ranging in concentration from 0.5-50 μg/mL. These mixtures were then incubated for 4 h at 37° C., and then the reaction stopped by the addition of 55 μL ice-cold Ca^++-, Mg^++-free PBS, followed by centrifugation at 500×g for 7 min. Supernatants were then assayed for TNF levels using a commercial ELISA kit (Biokine™ ELISA Test, T-cell Sciences, Cambridge. MA).

E. coli 0113 LPS = test: Limulus Amoebocyte Lysate (LAL) inhibition assay; assay type: biochemical
Outline: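 BPI proteolytic fragments incubated with E. coli 0113 LPS (4 ng/mL final) for 3 h at 37 °C, then diluted in D-PBS to 200 pg/mL LPS for chromogenic LAL. Lysate 25 min, substrate 20–30 min at room temperature, acetic acid stop; OD405 expressed as percent LPS inhibition.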

E. coli J5 (rough) = test: Broth antibacterial assay, E. coli J5; assay type: cell-based
Experimental: as §1

[2] = In vitro heparin-mediated lengthening of APTT / clotting time of heparinized plasma; assay type: biochemical, human; details: for effect on the clotting time of heparinized blood (in words): FIG. 12g; for effect on heparin-mediated lengthening of APTT (in words): citrated human plasma, 25 μg/mL heparin, 0.0 to 56 μg/mL
Experimental: In vitro, the effect of BPI combination functional domain peptides was determined on heparin-mediated lengthening of activated partial […] (APTT). The APTT is lengthened by the presence of endogenous or exogenous inhibitors of thrombin formation, such as therapeutically administered heparin. Thus, agents which neutralize the anti-coagulant effects of heparin will reduce the APTT measured by the test. Citrated human plasma (200 μL) was incubated for 1 minute at 37° C. with either 15 μL of diluent (0.15 M NaCl, 0.1 M Tris-HCl, pH 7.4) or 15 μL of the diluent also containing 25 μg/mL heparin (187 units/mg). Various concentrations (from 0.0 to 56 μg/mL) of rBPI23, rBPI21Δcys, or BPI combination peptides BPI.29 (the DIII homodimer) and BPI.30 (heterodimer DII+DIII) in a volume of 15 μL were added, followed immediately by 100 μL of thrombin reagent (Catalog No. 845-4, Sigma Chemical Co., St. Louis. MO). Clotting time ([…]) was measured using a BBL Fibrometer (Becton Dickenson Microbiology Systems, Cockeysville, Md.). […] FIG. 12e illustrates the results obtained with BPI.30 on a non-log scale.

Row | Substance | fungicidal activity (in words) (Candida albicans) | IC50 TNF assay [1] | LAL / LPS inhibition activity (in words) (E. coli 0113 LPS) | bactericidal activity (in words) (E. coli J5 (rough)) | effect on the clotting time of heparinized blood (in words) [2] | effect on heparin-mediated lengthening of APTT (in words) [2]
1 | KWKAAARFLKKWKAAARFLK [BPI.48] | much lower activity levels | – | – | – | – | –
2 | KSKVGWLIQLFHKK-NH2 (C-terminus assumed) [BPI.13] | found to have fungicidal activity | 42 µg/mL | – | – | – | –
3 | KWKAQKRFLKKWKAQKRFLK-NH2 (C-terminus assumed) [BPI.7] | – | Not Inhibitory | significant LPS inhibition properties | significant bactericidal activity | greatest effect; also recorded: less of a decrease in clotting times | –
4 | NVGLKFSISNANIKISGKWKAQKRFLK [BPI.3] | – | – | moderate LPS inhibition activity | significant anti-bacterial activity | smaller effect | –
5 | KWKAQKRFLKKSKVGWLIQLFHKK-NH2 (C-terminus assumed) [BPI.30] | much lower activity levels | – | – | – | greatest effect | inhibit the heparin-mediated lengthening of APTT
6 | KSKVGWLIQLFHKKKSKVGWLIQLFHKK-NH2 (C-terminus assumed) [BPI.29] | much lower activity levels | 5.0 µg/mL | – | – | greatest effect | inhibit the heparin-mediated lengthening of APTT
7 | IKISGKWKAQKRFLK [BPI.2] | much lower activity levels | – | no significant LPS inhibition activity | – | less of a decrease in clotting times | –
